The text below walks through data of patent US11865126B2, “Method for treating anxiety disorders, headache disorders, and eating disorders with psilocybin” (priority 2019, dated 2024).

Structures are written as SMILES.

The test system of one assay is CCK-4-treated rats. In words: Elevated plus maze (EPM) after CCK-4 induced panic anxiety. The assay is classed as in vivo, rat. On the procedure: This example examines the effects of psilocybin on induced panic anxiety. The elevated plus maze (EPM) is a widely used behavioral assay for rodents to assess anti-panic or anti-anxiety effects of pharmacological agents. Briefly, rodents are placed at the junction of the four arms of the maze, facing an open arm, and entries/duration in each arm are recorded over a period of time. An increase in open arm activity reflects anti-anxiety behavior (Walf et al., Nature Protocols, 2007).
Panic anxiety can be induced in rodents through administration of panicogenic drugs such as cholecystokinin tetrapeptide (CCK-4). Peripheral administration of CCK-4 leads to an anxiogenic-like action in the EPM model of anxiety in rats. The anxiogenic effect of CCK-4 can be antagonized by benzodiazepine (e.g., diazepam) treatment.
Animal handling was performed on a daily basis starting 1 week before the EPM assay. CCK-4 was prepared in saline at the dosage volume of 1 mL/kg and was intraperitoneally administered to the rats 30 min before implementation of the EPM test resulting in a CCK-4 dose of 0.2 mg/kg. CCK-4 was administered to all treatment groups except for the vehicle control (saline). Treatment groups for this study are shown below in Table 33. The EPM assay was performed 2 hours, and 24 hours following administration of psilocybin, and 1 hour after administration of diazepam.
The apparatus used in the EPM assay was a PVC maze covered with Plexiglas and subdivided into four equal exploratory arms (21×8 cm). All arms were interconnected by a small platform (8×8 cm). The apparatus was placed 59 cm above the floor. Two arms were open and two arms were closed with walls (height: 21 cm).
After the appropriate pre-treatment time, the rat was placed on the platform opposite a closed arm. The number of entries and the time spent in each arm were recorded during a 5 min period. The animal was considered as entered in an arm when it placed four paws in the arm. During the trial, animal handling and the visibility of the operator was minimized as much as possible.
The results were analyzed by analysis of variance (ANOVA). Fisher's PLSD was used for pairwise comparisons and p value s 0.05 were considered significant.

A further assay concerns female Wistar rats. In words: Binge eating model: chow, chocolate and total food intake.
Setting [1] is: 0.2 mg/kg i.p., 30 min before EPM.
[2] abbreviates: positive control, 1 hour after administration.

Consider `CSCC[C@H](NC(=O)[C@@H](N)Cc1c[nH]c2ccccc12)C(=O)N[C@@H](CC(=O)O)C(=O)N[C@@H](Cc1ccccc1)C(N)=O` [CCK-4, cholecystokinin tetrapeptide], for which, in the assay on CCK-4-treated rats (setting [1]), the “Number of entries into the open arm vs saline alone” value was “significantly reduced” and the “Time spent in the open arm vs saline alone” value is listed as “significantly reduced”.

For `CN1C(=O)CN=C(c2ccccc2)c2cc(Cl)ccc21` [Diazepam, diazepam], in the assay on CCK-4-treated rats (setting [2]), the “Number of entries into the open arms vs CCK-4 alone” value was “significant increase” and the “Time spent in the open arms vs CCK-4 alone” value was “significant increase”.

For the molecule `C[C@@H](Cc1ccccc1)NC(=O)[C@@H](N)CCCCN` [LDX, lisdexamfetamine], in the assay on female Wistar rats (0.8 mg/kg daily PO, 1 hour), the “Chocolate intake during binging session vs vehicle/binge” value is reported as “significantly reduced chocolate eating”. Also, the “Food intake over a 24 hour period” value with female Wistar rats (Day 1, 0.8 mg/kg daily PO) was “significantly reduced”.
